# PubChem BioAssay AID1963868 (Molecular Pharmacology Branch, DTP, NCI, 2024)
# Tested on: KRAS PDC tumor spheroids (HUVEC+MSC), viability
# Assay: Anticancer human tumor 254851-301-R-J1-PDC patient-derived colon carcinoma cell line growth inhibition [KRAS2]
# Conditions: for IC50: curve of first compound; for viability, T/C: stronger effect = lower value
# In short: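 KRAS-mutant tumor cells were grown as spheroids with HUVEC endothelial cells and human MSCs as stroma. Targeted agents were tested alone and with KRAS pathway inhibitors. Doses started at or near clinical Cmax, or 10 microM, descending half-log.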
# [1] = second compound 0.1 µM, first compound 0.000316 µM
# [2] = second compound 0.1 µM, first compound 0.001 µM
# [3] = second compound 0.1 µM, first compound 0.00316 µM
# [4] = second compound 0.1 µM, first compound 0.01 µM
# [5] = second compound 0.1 µM, first compound 0.0316 µM
# [6] = second compound 0.1 µM, first compound 0.1 µM
# [7] = second compound 0.316 µM, first compound 0.000316 µM
# [8] = second compound 0.316 µM, first compound 0.001 µM
# [9] = second compound 0.316 µM, first compound 0.00316 µM
# [10] = second compound 0.316 µM, first compound 0.01 µM
# [11] = second compound 0.316 µM, first compound 0.0316 µM
# [12] = second compound 0.316 µM, first compound 0.1 µM
# [13] = second compound 1 µM, first compound 0.000316 µM
# [14] = second compound 1 µM, first compound 0.001 µM
# [15] = second compound 1 µM, first compound 0.00316 µM
# [16] = second compound 1 µM, first compound 0.01 µM
# [17] = second compound 1 µM, first compound 0.0316 µM
# [18] = second compound 1 µM, first compound 0.1 µM
# [19] = second compound 3.16 µM, first compound 0.000316 µM
# [20] = second compound 3.16 µM, first compound 0.001 µM
# [21] = second compound 3.16 µM, first compound 0.00316 µM
# [22] = second compound 3.16 µM, first compound 0.01 µM
# [23] = second compound 3.16 µM, first compound 0.0316 µM
# [24] = second compound 3.16 µM, first compound 0.1 µM
# [25] = second compound 10 µM, first compound 0.000316 µM
# [26] = second compound 10 µM, first compound 0.001 µM
# [27] = second compound 10 µM, first compound 0.00316 µM
# [28] = second compound 10 µM, first compound 0.01 µM
# [29] = second compound 10 µM, first compound 0.0316 µM
# [30] = second compound 10 µM, first compound 0.1 µM
# [31] = second compound 0.1 µM, first compound 0.316 µM
# [32] = second compound 0.1 µM, first compound 1 µM
# [33] = second compound 0.1 µM, first compound 3.16 µM
# [34] = second compound 0.1 µM, first compound 10 µM
# [35] = second compound 0.316 µM, first compound 0.316 µM
# [36] = second compound 0.316 µM, first compound 1 µM
# [37] = second compound 0.316 µM, first compound 3.16 µM
# [38] = second compound 0.316 µM, first compound 10 µM
# [39] = second compound 1 µM, first compound 0.316 µM
# [40] = second compound 1 µM, first compound 1 µM
# [41] = second compound 1 µM, first compound 3.16 µM
# [42] = second compound 1 µM, first compound 10 µM
# [43] = second compound 3.16 µM, first compound 0.316 µM
# [44] = second compound 3.16 µM, first compound 1 µM
# [45] = second compound 3.16 µM, first compound 3.16 µM
# [46] = second compound 3.16 µM, first compound 10 µM
# [47] = second compound 10 µM, first compound 0.316 µM
# [48] = second compound 10 µM, first compound 1 µM
# [49] = second compound 10 µM, first compound 3.16 µM
# [50] = second compound 10 µM, first compound 10 µM
# 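Note: spheroids exposed to compounds for seven days before readout.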
# 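Throughout, for viability, T/C: 100% = DMSO vehicle control luminescence of the spheroids.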
SMILES,IC50 (second compound 0.1 µM),IC50 (second compound 0.316 µM),IC50 (second compound 1 µM),IC50 (second compound 3.16 µM),IC50 (second compound 10 µM),"viability, T/C [4]","viability, T/C [5]","viability, T/C [6]","viability, T/C [10]","viability, T/C [11]","viability, T/C [12]","viability, T/C [16]","viability, T/C [17]","viability, T/C [18]","viability, T/C [22]","viability, T/C [23]","viability, T/C [24]","viability, T/C [28]","viability, T/C [29]","viability, T/C [30]",further results
CC(C)n1nc(-c2ccc3oc(N)nc3c2)c2c(N)ncnc21 + CNCc1ccccc1-c1csc(C(C)Nc2nc(C)nc3cc(OC)c(OC)cc23)c1,18.6 nM,19.7 nM,17.4 nM,6.04 nM,< 0.316 nM,64.8%,36.8%,23.3%,73.4%,33.8%,23.4%,68%,31.4%,19.5%,45.9%,25%,9.11%,0.14%,0.14%,0.19%,"viability, T/C [1]: 110%; viability, T/C [2]: 98.6%; viability, T/C [3]: 89.2%; viability, T/C [7]: 96.1%; viability, T/C [8]: 105%; viability, T/C [9]: 82%; viability, T/C [13]: 88.6%; viability, T/C [14]: 95%; viability, T/C [15]: 80.4%; viability, T/C [19]: 81.1%; viability, T/C [20]: 76.7%; viability, T/C [21]: 53.8%; viability, T/C [25]: 0.21%; viability, T/C [26]: 0.19%; viability, T/C [27]: 0.17%"
COc1cc2nccc(Oc3ccc(NC(=O)C4(C(=O)Nc5ccc(F)cc5)CC4)cc3)c2cc1OC + CNCc1ccccc1-c1csc(C(C)Nc2nc(C)nc3cc(OC)c(OC)cc23)c1,9900 nM,7280 nM,6420 nM,1630 nM,< 31.6 nM,–,102%,104%,–,112%,91.5%,–,107%,102%,–,82%,78%,–,0.19%,0.17%,"viability, T/C [31]: 97.2%; viability, T/C [32]: 103%; viability, T/C [33]: 101%; viability, T/C [34]: 49.6%; viability, T/C [35]: 96.3%; viability, T/C [36]: 101%; viability, T/C [37]: 85.5%; viability, T/C [38]: 36.3%; viability, T/C [39]: 100%; viability, T/C [40]: 99.7%; viability, T/C [41]: 82.7%; viability, T/C [42]: 29.3%; viability, T/C [43]: 72.4%; viability, T/C [44]: 64.4%; viability, T/C [45]: 32.5%; viability, T/C [46]: 0.27%; viability, T/C [47]: 0.16%; viability, T/C [48]: 0.18%; viability, T/C [49]: 0.13%; viability, T/C [50]: 0.17%"
CN(C)C/C=C/C(=O)Nc1cc2c(Nc3ccc(F)c(Cl)c3)ncnc2cc1O[C@H]1CCOC1 + COc1cc2nc(C)nc(NC(C)c3cc(N)cc(C(F)(F)F)c3)c2cc1OC1CCOC1,> 100 nM,> 100 nM,> 100 nM,> 100 nM,> 100 nM,102%,96.5%,75.3%,87.9%,88%,74.7%,81.8%,85.9%,81.7%,78.7%,84.6%,63.5%,82.9%,65.9%,59.5%,"viability, T/C [1]: 104%; viability, T/C [2]: 110%; viability, T/C [3]: 108%; viability, T/C [7]: 102%; viability, T/C [8]: 102%; viability, T/C [9]: 91.9%; viability, T/C [13]: 99.5%; viability, T/C [14]: 101%; viability, T/C [15]: 92.7%; viability, T/C [19]: 91%; viability, T/C [20]: 85.3%; viability, T/C [21]: 89.7%; viability, T/C [25]: 78.2%; viability, T/C [26]: 78.9%; viability, T/C [27]: 81.6%"
CC1OCC2(CCN(c3cnc(Sc4ccnc(N)c4Cl)c(N)n3)CC2)C1N (stereo not given) + C=CC(=O)N1CCN(c2nc(=O)n(-c3c(C)ccnc3C(C)C)c3nc(-c4c(O)cccc4F)c(F)cc23)C(C)C1,> 10000 nM,> 10000 nM,> 10000 nM,> 10000 nM,> 10000 nM,–,95%,91%,–,78%,99.2%,–,94.6%,84.7%,–,92.6%,71.1%,–,80.7%,70.8%,"viability, T/C [31]: 81.6%; viability, T/C [32]: 60.2%; viability, T/C [33]: 67.2%; viability, T/C [34]: 61.9%; viability, T/C [35]: 75.4%; viability, T/C [36]: 71.4%; viability, T/C [37]: 60.5%; viability, T/C [38]: 68.7%; viability, T/C [39]: 76.3%; viability, T/C [40]: 74.1%; viability, T/C [41]: 67.8%; viability, T/C [42]: 67.5%; viability, T/C [43]: 81.5%; viability, T/C [44]: 63.9%; viability, T/C [45]: 72.2%; viability, T/C [46]: 65.6%; viability, T/C [47]: 58.9%; viability, T/C [48]: 55.6%; viability, T/C [49]: 56%; viability, T/C [50]: 66.3%"
CC(=O)OC12COC1CC(O)C1(C)C(=O)C(O)C3=C(C)C(OC(=O)C(O)C(NC(=O)OC(C)(C)C)c4ccccc4)CC(O)(C(OC(=O)c4ccccc4)C21)C3(C)C (stereo not given) + COc1cc2nc(C)nc(NC(C)c3cc(N)cc(C(F)(F)F)c3)c2cc1OC1CCOC1,180 nM,143 nM,166 nM,66.2 nM,69.7 nM,95%,87%,62.2%,96.1%,92.7%,56.4%,82.2%,78.7%,62.1%,71.8%,67%,40.3%,72.4%,68.9%,41.4%,"viability, T/C [31]: 38.4%; viability, T/C [32]: 27%; viability, T/C [33]: 24.5%; viability, T/C [35]: 34.6%; viability, T/C [36]: 24.7%; viability, T/C [37]: 23.3%; viability, T/C [39]: 34.6%; viability, T/C [40]: 26.4%; viability, T/C [41]: 24.5%; viability, T/C [43]: 28.1%; viability, T/C [44]: 24.9%; viability, T/C [45]: 24.2%; viability, T/C [47]: 25%; viability, T/C [48]: 25.1%; viability, T/C [49]: 24.4%"
CC(=O)Nc1cccc(-n2c(=O)n(C3CC3)c(=O)c3c(Nc4ccc(I)cc4F)n(C)c(=O)c(C)c32)c1 + CNCc1ccccc1-c1csc(C(C)Nc2nc(C)nc3cc(OC)c(OC)cc23)c1,4.7 nM,5.18 nM,2.4 nM,0.639 nM,< 0.1 nM,11.4%,2.93%,–,12.6%,2.77%,–,5.82%,2.26%,–,0.32%,0.28%,–,0.09%,0.15%,–,"viability, T/C (second compound 0.1 µM, first compound 0.0001 µM): 101%; viability, T/C [1]: 101%; viability, T/C [2]: 87.7%; viability, T/C [3]: 71%; viability, T/C (second compound 0.316 µM, first compound 0.0001 µM): 82.5%; viability, T/C [7]: 99.8%; viability, T/C [8]: 87.1%; viability, T/C [9]: 78.2%; viability, T/C (second compound 1 µM, first compound 0.0001 µM): 94.4%; viability, T/C [13]: 94.9%; viability, T/C [14]: 88.2%; viability, T/C [15]: 37.9%; viability, T/C (second compound 3.16 µM, first compound 0.0001 µM): 72.5%; viability, T/C [19]: 74.9%; viability, T/C [20]: 34.9%; viability, T/C [21]: 0.57%; viability, T/C (second compound 10 µM, first compound 0.0001 µM): 0.16%; viability, T/C [25]: 0.15%; viability, T/C [26]: 0.13%; viability, T/C [27]: 0.1%"
